Test results: US8492350B2, “Therapeutic agent for pain disease” (Nippon Zoki Pharmaceutical Co., Ltd., priority 2007, dated 2013)

Columns and labels:
[1] = disclosed in Patent Document 1 / Example 8 of Japanese Examined Patent Publication No. 63/028,411; cited from earlier work
[2] = system: Chung model rats which are models of neuropathic pain; test: Test for analgesic effect (allodynia, von Frey filament, up-down method) in Chung model rats; format: in vivo, rats of Wistar strain; details: for 50% Reaction Threshold Values, Before Administration: baseline
Protocol: Test for analgesic effect was conducted using Chung model rats which are models of neuropathic pain. Male rats of Wistar strain of 9 weeks age were used as experimental animals and model rats were prepared according to a method of Kim and Chung (Pain, vol. 50, pages 355 to 363, 1992). Thus, when they were in 10 weeks age, rat L5 spinal nerve was exposed and the periphery side of L5 dorsal root ganglion was strongly ligated with 5-0 silk yarn under anesthetizing with pentobarbital (40 mg/kg, intraperitoneal administration) to conduct a nerve damage. The animals were placed in a transparent acrylic cage where the bottom was wire net, 50% reaction threshold values were calculated by an up-down method using a von Frey filament (manufactured by North Coast Medical Inc.) according to a method of Chaplan, et al. (J. Neurosci. Method, vol. 53, pages 55 to 63, 1994) and the effect of the test substance to allodynia was measured. […] In those experimental animals, each group comprised seven animals using the 50% reaction threshold values after the nerve damage as an index and the group constitution was done in such a manner that mean values of a nerve damage control group and of a test substance-administered group were made nearly uniform.
N-acetylneuraminic acid as a test substance was intraperitoneally administered in a single dose (120 mg/kg). A 0.5% CMC-Na (w/v) solution/physiological saline was similarly administered to the nerve damage control group (control group). After 30 minutes from the administration of a test substance, pain tests were conducted and the calculated 50% reaction threshold values were expressed in terms of mean value±standard deviation for each group.
Further, in the same manner as the above test, N-acetylneuraminic acid as a test substance was orally administered in a single dose (300 mg/kg). Injection solvent was administered to a nerve damage control group (control group) in the same manner. After 60 minutes from the administration of a test substance, pain tests were conducted and the 50% reaction threshold values were calculated. Numbers of the animals were eight for each of the nerve damage control group and the test substance-administered group.

Row | SMILES | Acute toxicity [1] | 50% reaction threshold value as compared with the nerve damage control group (anti-allodynia action) ([2]; both single intraperitoneal injection and single oral administration) | 50% Reaction Threshold Values, Before Administration ([2]; group later given a single intraperitoneal dose of 120 mg/kg, mean ± standard deviation) [g] | 50% Reaction Threshold Values, Before Administration ([2]; group later given a single oral dose of 300 mg/kg) [g] | 50% Reaction Threshold Values, After 30 minutes from Administration ([2]; single intraperitoneal dose 120 mg/kg, 30 minutes after administration, mean ± standard deviation, *P < 0.05 vs nerve damage control) | 50% Reaction Threshold Values, After 60 minutes from Administration ([2]; single oral dose 300 mg/kg, 60 minutes after administration, *P < 0.05 vs nerve damage control)
1 | CC(=O)N[C@H]1[C@H]([C@H](O)[C@H](O)CO)OC(O)(C(=O)[O-])C[C@@H]1O.[Na+] (stereo partly shown) [sodium N-acetylneuraminate] | very lowly toxic | – | – | – | – | –
2 | CC(=O)N[C@H]1[C@H]([C@H](O)[C@H](O)CO)OC(O)(C(=O)O)C[C@@H]1O (stereo partly shown) [N-Acetylneuraminic Acid, N-acetylneuraminic acid] | very low and safe | significant rise | 2.63 ± 0.21 | 2.75 ± 0.15 | 6.74 ± 1.64* g | 4.81 ± 0.35* g
